ChEMBL document CHEMBL6109147, “Discovery of Potent STING Inhibitors Bearing a Difluorobenzodioxol Structural Motif as Potent Anti-Inflammatory Agents” (J Med Chem, 2025)
The source made the active and inactive calls. The calls are words filed in the database; no cut-off is given here.

Assays:
Mus musculus [1] = assay: Anti-inflammatory activity against Cisplatin induced C57BL/6 mouse kidney inflammation model assessed as suppression of Cisplatin induced Ifn-beta mRNA level in kidney at 5 mg/kg, ip treated for 3 days by real-time PCR analysis; assay type: functional, organism-based; conditions: time 3.0 day
[2] = target: Stimulator of interferon genes protein (Homo sapiens) (UniProt Q86WV6); assay: Inhibition of human wild type STING (R232) expressed in human 293-Dual hSTING-R232 cells assessed as reduction in cGAMP-induced TNF-alpha expression; assay type: cell-based
Stimulator of interferon genes protein (Homo sapiens), sequence (Q86WV6 whole entry): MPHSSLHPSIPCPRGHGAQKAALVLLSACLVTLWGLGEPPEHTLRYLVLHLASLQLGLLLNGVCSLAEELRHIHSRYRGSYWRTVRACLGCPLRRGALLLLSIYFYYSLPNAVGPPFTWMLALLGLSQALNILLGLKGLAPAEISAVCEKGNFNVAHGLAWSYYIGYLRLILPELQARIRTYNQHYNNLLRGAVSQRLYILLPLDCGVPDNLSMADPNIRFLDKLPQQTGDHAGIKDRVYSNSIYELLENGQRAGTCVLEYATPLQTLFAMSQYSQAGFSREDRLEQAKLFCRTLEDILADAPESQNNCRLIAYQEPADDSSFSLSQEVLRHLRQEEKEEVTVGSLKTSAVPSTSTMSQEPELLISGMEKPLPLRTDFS

Mus musculus [3] = assay: Anti-inflammatory activity against MSA-2 induced C57BL/6 mouse inflammation model assessed as inhibition of MSA-2 induced TNF-alpha mRNA expression in kidney at 10 mg/kg, ip pre-treated for 1 hr followed by stimulated with MSA-2 for 4 hrs by real-time PCR analysis; assay type: functional, organism-based; conditions: time 5.0 hrs
[4] = target: Stimulator of interferon genes protein (Homo sapiens) (UniProt Q86WV6); assay: Inhibition of STING downstream signalling in human THP1-Dual cells assessed as inhibition of cGAMP induced IP-10 mRNA expression at 0.3 to 3 uM pre-treated for 1 hr followed by stimulated with cGAMP measured after 4 hrs by real-time PCR analysis; assay type: cell-based; conditions: dose 0.3-3 µM, time 5.0 hrs
Mus musculus [5] = assay: Anti-inflammatory activity in TREX1 D18N mouse model assessed as reduction in Cxcl10 mRNA expression in kidney at 10 mg/kg, ip measured after 2 weeks; assay type: functional, organism-based
[6] = target: T1, Stimulator of interferon genes protein (Mus musculus) (UniProt Q3TBT3); assay: Inhibition of STING downstream signalling in mouse RAW264.7 cells assessed as inhibition of DMAAA induced TNFalpha secretion level at 0.3 to 3 uM pre-treated for 1 hr followed by stimulated with DMAAA measured after 24 hrs by ELISA; assay type: cell-based; conditions: dose 0.3-3 µM, time 25.0 hrs
T1 sequence (whole entry): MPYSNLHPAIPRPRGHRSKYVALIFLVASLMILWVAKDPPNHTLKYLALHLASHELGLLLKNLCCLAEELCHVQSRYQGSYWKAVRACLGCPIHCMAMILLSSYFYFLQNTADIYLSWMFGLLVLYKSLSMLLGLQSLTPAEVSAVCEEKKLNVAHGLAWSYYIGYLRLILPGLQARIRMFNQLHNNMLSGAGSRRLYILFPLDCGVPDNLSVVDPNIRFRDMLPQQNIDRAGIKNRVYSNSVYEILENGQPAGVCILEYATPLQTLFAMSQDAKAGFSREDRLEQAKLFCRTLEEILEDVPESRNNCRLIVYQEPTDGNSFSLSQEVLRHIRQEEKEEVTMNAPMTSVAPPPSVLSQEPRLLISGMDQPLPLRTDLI

[7] = AUC (0 to infinity) in Sprague-Dawley rat at 1 mg/kg, iv; assay type: ADME, organism-based; conditions: in vivo
Mus musculus [8] = assay: Anti-inflammatory activity against Cisplatin induced C57BL/6 mouse kidney inflammation model assessed as prevention of Cisplatin induced interstitial vacuolation at 5 mg/kg, ip treated for 3 days; assay type: functional, organism-based; conditions: time 3.0 day
[9] = Metabolic stability in human liver microsomes assessed as liver intrinsic clearance; assay type: ADME, Microsome
[10] = test system: Stimulator of interferon genes protein (Homo sapiens), Q86WV6 [UNDEFINED MUTATION]; assay: Inhibition of human STING expressed in 293T-Dual-hSTING-H232 cells assessed as reduction in cGAMP-induced secreted luciferase reporter of interferon stimulated gene (ISG) measured after 24 hrs incubation; assay type: cell-based
Stimulator of interferon genes protein (Homo sapiens), Q86WV6 [UNDEFINED MUTATION], sequence (Q86WV6 whole entry, looked up, change not shown): as the sequence (Q86WV6 whole entry) above

[11] = target: T1, Stimulator of interferon genes protein (Mus musculus); assay: Inhibition of STING downstream signalling in mouse BMDM cells assessed as inhibition of MSA-2 induced TBK1 phosphorylation pre-treated for 1 hr followed by stimulated with MSA-2 measured after 4 hrs by Western blot analysis; assay type: cell-based; conditions: dose 0.3-3 µM, time 5.0 hrs
[12] = Half life in Sprague-Dawley rat at 1 mg/kg, iv; assay type: ADME, organism-based; conditions: in vivo
[13] = Volume of distribution at steady state in Sprague-Dawley rat at 1 mg/kg, iv; assay type: ADME, organism-based; conditions: Sprague-Dawley, in vivo, read-out: Vdss
Mus musculus [14] = assay: Effect on […] expression in Cisplatin induced C57BL/6 STING-KO mouse kidney inflammation model at 5 mg/kg, ip treated for 3 days by real-time PCR analysis; assay type: functional, organism-based; conditions: time 3.0 day
Mus musculus [15] = assay: Anti-inflammatory activity against MSA-2 induced C57BL/6 mouse inflammation model assessed as inhibition of MSA-2 induced IP-10 level in plasma at 10 mg/kg, ip pre-treated for 1 hr followed by stimulated with MSA-2 for 4 hrs by ELISA; assay type: functional, organism-based; conditions: time 5.0 hrs
Mus musculus [16] = assay: Anti-inflammatory activity against MSA-2 induced C57BL/6 mouse inflammation model assessed as inhibition of MSA-2 induced IL-6 mRNA expression in kidney at 10 mg/kg, ip pre-treated for 1 hr followed by stimulated with MSA-2 for 4 hrs by real-time PCR analysis; assay type: functional, organism-based; conditions: time 5.0 hrs
Mus musculus [17] = assay: Anti-inflammatory activity in TREX1 D18N mouse model assessed as reduction in IL6 mRNA expression in heart at 10 mg/kg, ip measured after 2 weeks; assay type: functional, organism-based
Mus musculus [18] = assay: Anti-inflammatory activity against MSA-2 induced C57BL/6 mouse inflammation model assessed as inhibition of MSA-2 induced IL-6 level in kidney at 10 mg/kg, ip pre-treated for 1 hr followed by stimulated with MSA-2 for 4 hrs by ELISA; assay type: functional, organism-based; conditions: time 5.0 hrs
[19] = target: Stimulator of interferon genes protein (Homo sapiens) (UniProt Q86WV6); assay: Inhibition of human wild type STING (R232) expressed in human 293-Dual hSTING-R232 cells assessed as inhibition of secreted luciferase reporter of interferon stimulated gene (ISG) measured after 24 hrs incubation; assay type: cell-based
[20] = AUC (0 to infinity) in Sprague-Dawley rat at 3 mg/kg, po; assay type: ADME, organism-based; conditions: in vivo
[21] = target: T1, Stimulator of interferon genes protein (Mus musculus); assay: Inhibition of STING downstream signalling in mouse RAW264.7 cells assessed as inhibition of DMAAA induced Isg56 mRNA level pre-treated for 1 hr followed by stimulated with DMAAA measured after 4 hrs by real-time PCR analysis; assay type: cell-based; conditions: dose 0.3-3 µM, time 5.0 hrs
[22] = target: T2, Stimulator of interferon genes protein (Mus musculus, UniProt Q3TBT3); assay: Inhibition of mouse STING in mouse RAW cells assessed as secreted luciferase reporter of interferon stimulated gene (ISG) measured after 24 hrs incubation by QUANTI-Luc detection assay; assay type: cell-based
T2 sequence (Q3TBT3 whole entry): T1 sequence (whole entry)

Mus musculus [23] = assay: Anti-inflammatory activity in TREX1 D18N mouse model assessed as reduction in Ccl5 mRNA expression in kidney at 10 mg/kg, ip measured after 2 weeks; assay type: functional, organism-based
[24] = target: Stimulator of interferon genes protein (Homo sapiens) (UniProt Q86WV6); assay: Binding affinity to Flag-tagged human STING expressed in HEK293T cells assessed as labelling at 0.5 to 4 uM pretreated for 15 mins measured after 1 hr in presence of 1 uM 1-(2,2-difluorobenzo[d][1,3]dioxol-5-yl)-3-(5-ethynyl-1H-indol-3-yl)urea by TAMRA-N3 fluorescent assay; assay type: cell-based; conditions: dose 0.5-4 µM, time 75.0 min
Mus musculus [25] = assay: Effect on Isg56 expression in Cisplatin induced C57BL/6 STING-KO mouse kidney inflammation model at 5 mg/kg, ip treated for 3 days by real-time PCR analysis; assay type: functional, organism-based; conditions: time 3.0 day
[26] = target: T1, Stimulator of interferon genes protein (Mus musculus); assay: Inhibition of STING downstream signalling in mouse RAW264.7 cells assessed as inhibition of DMAAA induced Isg15 mRNA level pre-treated for 1 hr followed by stimulated with DMAAA measured after 4 hrs by real-time PCR analysis; assay type: cell-based; conditions: dose 0.3-3 µM, time 5.0 hrs

inhibition [2]: Active
inhibition [4]: Active
inhibition [6]: Active
AUC(0-inf) [7]: 196 ng·h/mL
CLH [9]: 36.9 µL/min/mg
inhibition [10]: Active
inhibition [11]: Dose-dependent-effect
half-life [12]: 19.8 min
Vd [13]: 2.38 L/kg
inhibition [19]: Active
AUC(0-inf) [20]: 74.8 ng·h/mL
inhibition [21]: Dose-dependent-effect
IC50 [22]: 96.3 nM
Activity [24]: inactive
inhibition [26]: Dose-dependent-effect
Compound: N#CC/C=C/c1ccc2[nH]cc(NC(=O)Nc3ccc4c(c3)OC(F)(F)O4)c2c1
inhibition (Mus musculus [1]): Active
inhibition (Mus musculus [3]): Active
Activity (Mus musculus [5]): Active
inhibition (Mus musculus [8]): inactive
Activity (Mus musculus [14]): inactive
inhibition (Mus musculus [15]): Active
inhibition (Mus musculus [16]): Active
Activity (Mus musculus [17]): Active
inhibition (Mus musculus [18]): Active
Activity (Mus musculus [23]): Active
Activity (Mus musculus [25]): inactive
